From patent publication US20240199605A1, “SMALL MOLECULAR INHIBITORS OF NF-kB INDUCING KINASE” (Janssen Pharmaceutica NV, priority 2019, published 2024)
pIC50: −log10 of the molar value. Like-named read-outs stand apart in the source and are kept apart here.

Assays:
[1] = molecular target: recombinant human NF-kappaB-inducing kinase (NIK/MAP3K14) (Homo sapiens (Human), UniProt Q99558); test: Inhibition of auto-phosphorylation of recombinant human NIK/MAP3K14 (AlphaScreen); type: biochemical; details: NIK auto-phosphorylation, 5 μM ATP, 1 nM NIK, 2 h at 25° C.; average of values
recombinant human NF-kappaB-inducing kinase (NIK/MAP3K14), sequence (Q99558 whole entry): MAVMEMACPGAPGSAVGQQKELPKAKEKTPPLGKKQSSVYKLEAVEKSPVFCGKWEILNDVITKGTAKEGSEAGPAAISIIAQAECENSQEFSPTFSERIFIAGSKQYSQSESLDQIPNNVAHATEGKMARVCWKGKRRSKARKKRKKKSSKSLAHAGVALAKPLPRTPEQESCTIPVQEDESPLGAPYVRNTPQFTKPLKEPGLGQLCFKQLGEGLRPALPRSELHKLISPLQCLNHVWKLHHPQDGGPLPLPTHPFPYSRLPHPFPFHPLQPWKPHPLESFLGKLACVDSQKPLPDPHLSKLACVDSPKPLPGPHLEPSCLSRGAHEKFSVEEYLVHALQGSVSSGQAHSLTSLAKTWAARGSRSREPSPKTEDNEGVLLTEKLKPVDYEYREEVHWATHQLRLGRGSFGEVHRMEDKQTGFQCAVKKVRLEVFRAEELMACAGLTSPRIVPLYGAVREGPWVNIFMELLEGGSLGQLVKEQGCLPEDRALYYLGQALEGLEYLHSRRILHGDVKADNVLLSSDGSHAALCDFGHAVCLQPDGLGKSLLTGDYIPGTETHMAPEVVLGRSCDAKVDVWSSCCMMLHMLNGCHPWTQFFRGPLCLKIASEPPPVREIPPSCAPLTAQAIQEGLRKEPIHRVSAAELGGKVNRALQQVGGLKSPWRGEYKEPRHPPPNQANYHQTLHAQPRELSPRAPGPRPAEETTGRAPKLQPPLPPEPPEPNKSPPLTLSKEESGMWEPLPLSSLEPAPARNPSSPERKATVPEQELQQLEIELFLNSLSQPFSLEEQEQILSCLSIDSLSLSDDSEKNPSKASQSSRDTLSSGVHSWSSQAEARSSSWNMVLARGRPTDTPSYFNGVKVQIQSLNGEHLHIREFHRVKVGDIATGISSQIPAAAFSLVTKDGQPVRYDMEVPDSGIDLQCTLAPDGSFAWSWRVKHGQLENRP
Outline: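 AlphaScreen read-out (anti-phospho-IKK Ser176/180 antibody, Protein A acceptor and glutathione donor beads) of NIK auto-phosphorylation. Reaction: 1 nM enzyme, 5 μM ATP, Tris pH 7.5 buffer with Mg2+ and vanadate, 2 h at 25° C., final DMSO 0.7%. IC50 came from a sigmoidal curve fit.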

[2] = system: p-IKKα levels in L363 (NIK translocated multiple myeloma) cells; test: Effect of compounds on p-IKKα levels in L363 cells (AlphaLISA SureFire Ultra); type: cell-based, human; details: BAFF stimulated, MG132, 6 h, average of values, read-out: Assay 2 IC50
Outline: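 Inhibition of p-IKKα (Ser176/180) read by AlphaLISA after 6 h, 37 °C compound exposure (11-point 1:3 series, 0.3% DMSO) of L363 cells pre-incubated overnight ± 250 ng/ml BAFF and plated ± BAFF ± 10 μM MG132. Normalised to BAFF/MG132/DMSO and unstimulated controls; IC50 by sigmoidal fitting, duplicates.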

pIC50 [1] | pIC50 ([2]; Homo sapiens, L-363, 6 h) | Structure (SMILES) | pIC50 [2]
≥ 9.30 | 8.82 | CN1CC[C@@](O)(C#Cc2cccc(-c3ccc4c(C#N)cnc(N)c4n3)c2)C1=O [Example 118, (R)-8-Amino-2-[3-[2-(3-hydroxy-1-methyl-2-oxo-pyrrolidin-3-yl)ethynyl]phenyl]-1,7-naphthyridine-5-carbonitrile] | 
6.59 | 5.39 | CCOc1ncnc2ccc(-c3cccc(C#C[C@]4(O)CCN(C)C4=O)c3)nc12 [Example 24, (R)-3-((3-(4-Ethoxypyrido[3,2-d]pyrimidin-6-yl)phenyl)ethynyl)-3-hydroxy-1-methylpyrrolidin-2-one] | 
8.46 | 6.80 | COCc1nc(N)c2nc(-c3cccc(C#C[C@]4(O)CCN(C)C4=O)c3)ccc2n1 [Example 206, (R)-3-((3-(4-Amino-2-(methoxymethyl)pyrido[3,2-d]pyrimidin-6-yl)phenyl)ethynyl)-3-hydroxy-1-methylpyrrolidin-2-one] | 
9.05 | 7.80 | CN1CC[C@@](O)(C#Cc2cccc(-c3ccc4nc(F)nc(N)c4n3)c2)C1=O [Example 288, (R)-3-((3-(4-Amino-2-fluoropyrido[3,2-d]pyrimidin-6-yl)phenyl)ethynyl)-3-hydroxy-1-methylpyrrolidin-2-one] | 
5.39 | < 5.30 | Cc1nc(N)c2nc(-c3cccc(C#C[C@](C)(O)c4cnccn4)c3)ccc2n1 [Example 201, (S)-4-[3-(4-Amino-2-methyl-pyrido[3,2-d]pyrimidin-6-yl)phenyl]-2-pyrazin-2-yl-but-3-yn-2-ol] | 
9.05 | 7.22 | Cc1ccc(C#C[C@]2(O)CCN(C)C2=O)cc1-c1ncc2ccnc(N)c2n1 [Example 43, (R)-3-((3-(8-Aminopyrido[3,4-d]pyrimidin-2-yl)-4-methylphenyl)ethynyl)-3-hydroxy-1-methylpyrrolidin-2-one] | 
7.80 | 6.05 | Cc1nc(N)c2c(n1)CCN(c1cccc(C#C[C@]3(O)CCN(C)C3=O)c1)C2 [Example 215, (R)-3-((3-(4-Amino-2-methyl-7,8-dihydropyrido[4,3-d]pyrimidin-6(5H)-yl)phenyl)ethynyl)-3-hydroxy-1-methylpyrrolidin-2-one] | 
8.72 | 7.59 | CN1CC[C@@](O)(C#Cc2cccc(-c3cc(OCCC(F)(F)F)c4ncnc(N)c4n3)c2)C1=O [Example 306, (R)-3-[2-[3-[4-Amino-8-(3,3,3-trifluoropropoxy)pyrido[3,2-d]pyrimidin-6-yl]phenyl]ethynyl]-3-hydroxy-1-methyl-pyrrolidin-2-one] | 
7.64 | 6.27 | CCNc1ncnc2ccc(-c3cccc(C#C[C@]4(O)CCN(C)C4=O)c3)nc12 [Example 227, (R)-3-((3-(4-(Ethylamino)pyrido[3,2-d]pyrimidin-6-yl)phenyl)ethynyl)-3-hydroxy-1-methylpyrrolidin-2-one] | 
≥ 9.30 | 7.66 | Cc1cnc(N)c2nc(-c3cccc(C#C[C@]4(O)CCc5cccnc54)c3)ncc12 [Example 62, (R)-7-((3-(8-Amino-5-methylpyrido[3,4-d]pyrimidin-2-yl)phenyl)ethynyl)-6,7-dihydro-5H-cyclopenta[b]pyridin-7-ol] | 
9.15 | 7.22 | Cc1nc(-c2cccc(C#C[C@]3(O)CCN(C)C3=O)c2)cc2c(N)ncnc12 [Example 136, (R)-3-[2-[3-(4-Amino-8-methyl-pyrido[3,4-d]pyrimidin-6-yl)phenyl]ethynyl]-3-hydroxy-1-methyl-pyrrolidin-2-one] | 
8.92 | 7.59 | CN1CC[C@@](O)(C#Cc2cccc(-c3nc4c(N)ncnc4s3)c2)C1=O [Example 101, (R)-3-((3-(7-Aminothiazolo[5,4-d]pyrimidin-2-yl)phenyl)ethynyl)-3-hydroxy-1-methylpyrrolidin-2-one] | 
5.88 | < 5.30 | Cc1nc(N)c2nc(-c3cccc(C#C[C@](C)(O)c4ncccn4)c3)ccc2n1 [Example 198, (S)-4-[3-(4-Amino-2-methyl-pyrido[3,2-d]pyrimidin-6-yl)phenyl]-2-pyrimidin-2-yl-but-3-yn-2-ol] | 
7.66 | 6.23 | CN1CC[C@@](O)(C#Cc2cccc(-c3ccc4c(n3)c(N)nn4C)c2)C1=O [Example 21, (R)-3-[2-[3-(3-Amino-1-methyl-pyrazolo[4,3-b]pyridin-5-yl)phenyl]ethynyl]-3-hydroxy-1-methyl-pyrrolidin-2-one] | 
7.55 | 5.40 | Cc1ccc(C#C[C@]2(O)CCc3cccnc32)cc1-c1ccc2ccnc(N)c2c1 [Example 80, (R)-7-[2-[3-(1-Amino-7-isoquinolyl)-4-methyl-phenyl]ethynyl]-5,6-dihydrocyclopenta[b]pyridin-7-ol] | 
≥ 9.30 | 6.82 | CN1CC[C@@](O)(C#Cc2cccc(-c3ncc4c(-c5cnn(CCN)c5)cnc(N)c4n3)c2)C1=O [Example 134, (R)-3-[2-[3-[8-Amino-5-[1-(2-aminoethyl)pyrazol-4-yl]pyrido[3,4-d]pyrimidin-2-yl]phenyl]ethynyl]-3-hydroxy-1-methyl-pyrrolidin-2-one] | 
7.68 | 5.95 | C=CCN1CCC(O)(C#Cc2cccc(-c3ccc4nc(C)nc(N)c4n3)c2)C1=O (racemic) [Example 195, racemic-1-Allyl-3-((3-(4-amino-2-methylpyrido[3,2-d]pyrimidin-6-yl)phenyl)ethynyl)-3-hydroxypyrrolidin-2-one] | 
8.89 | 7.54 | Cc1cc(C#C[C@]2(O)CCN(C)C2=O)cc(-c2ncc3ccnc(N)c3n2)c1 [Example 42, (R)-3-((3-(8-Aminopyrido[3,4-d]pyrimidin-2-yl)-5-methylphenyl)ethynyl)-3-hydroxy-1-methylpyrrolidin-2-one] | 
9.15 | 7.89 | [2H]c1nc(N)c2nc(-c3cccc(C#C[C@]4(O)CCN(C)C4=O)c3)cc(C3CCCC3)c2n1 [Example 277, (R)-3-((3-(4-Amino-8-cyclopentylpyrido[3,2-d]pyrimidin-6-yl-2-d)phenyl)ethynyl)-3-hydroxy-1-methylpyrrolidin-2-one] | 
8.89 | 6.55 | Cc1cc([C@](C)(O)C#Cc2cccc(-c3ccc4ncnc(N)c4c3)c2)no1 [Example 104, (R)-4-[3-(4-Aminoquinazolin-6-yl)phenyl]-2-(5-methylisoxazol-3-yl)but-3-yn-2-ol] | 
8.85 | 6.85 | Cc1cc2cnc(-c3cccc(C#C[C@]4(O)CCc5cccnc54)c3)nc2c(N)n1 [Example 63, (R)-7-((3-(8-amino-6-methylpyrido[3,4-d]pyrimidin-2-yl)phenyl)ethynyl)-6,7-dihydro-5H-cyclopenta[b]pyridin-7-ol] | 
≥ 9.30 | 7.92 | C[C@@](O)(C#Cc1cccc(-c2ncc3ccnc(N)c3n2)c1)c1nccs1 [Example 32, (R)-4-[3-(8-Aminopyrido[3,4-d]pyrimidin-2-yl)phenyl]-2-thiazol-2-yl-but-3-yn-2-ol] | 
6.80 | < 5.30 | CN1CC[C@](O)(C#Cc2cccc(-c3ncc4ccnc(N)c4n3)c2)C1=O [Example 2, (S)-3-[2-[3-(8-Aminopyrido[3,4-d]pyrimidin-2-yl)phenyl]ethynyl]-3-hydroxy-1-methyl-pyrrolidin-2-one] | 
5.42 | < 5.30 | Cc1nc(N)c2nc(-c3cccc(C#C[C@](C)(O)c4cnc(C)s4)c3)ccc2n1 [Example 157, (S)-4-(3-(4-Amino-2-methylpyrido[3,2-d]pyrimidin-6-yl)phenyl)-2-(2-methylthiazol-5-yl)but-3-yn-2-ol] | 
≥ 9.30 | 7.80 | Cc1nc(-c2cccc(C#C[C@@](C)(O)c3nccs3)c2)nc2c(N)nccc12 [Example 48, (R)-4-(3-(8-Amino-4-methylpyrido[3,4-d]pyrimidin-2-yl)phenyl)-2-(thiazol-2-yl)but-3-yn-2-ol] | 
≥ 9.30 | 8.32 | CN1CC[C@@](O)(C#Cc2cccc(-c3ccc4c(Br)cnc(N)c4n3)c2)C1=O [Example 112, (R)-3-[2-[3-(8-Amino-5-bromo-1,7-naphthyridin-2-yl)phenyl]ethynyl]-3-hydroxy-1-methyl-pyrrolidin-2-one] | 
≥ 9.30 | 7.54 | CN1CC[C@@](O)(C#Cc2cccc(-c3nc4c(N)nccc4c(=O)[nH]3)c2)C1=O [Example 55, (R)-8-Amino-2-(3-((3-hydroxy-1-methyl-2-oxopyrrolidin-3-yl)ethynyl)phenyl)pyrido[3,4-d]pyrimidin-4(3H)-one] | 
8.92 | 7.26 | CN1CC[C@@](O)(C#Cc2cccc(N3CCc4ccnc(N)c4C3)c2)C1=O [Example 20, (R)-3-((3-(8-Amino-3,4-dihydro-2,7-naphthyridin-2(1H)-yl)phenyl)ethynyl)-3-hydroxy-1-methylpyrrolidin-2-one] | 
5.64 | < 5.30 | Nc1ncnc2cnc(-c3cccc(C#C[C@]4(O)CCc5cccnc54)c3)nc12 [Example 144, (R)-7-((3-(8-Aminopyrimido[5,4-d]pyrimidin-2-yl)phenyl)ethynyl)-6,7-dihydro-5H-cyclopenta[b]pyridin-7-ol] | 

Structure (SMILES) | pIC50 [1] | pIC50 ([2]; Homo sapiens, L-363, 6 h) | pIC50 [2]
CN1CC[C@@](O)(C#Cc2cccc(-c3cc(C4CCN4)c4ncnc(N)c4n3)c2)C1=O (stereo partly drawn) [Example 313, (3R)-3-((3-(4-Amino-8-(azetidin-2-yl)pyrido[3,2-d]pyrimidin-6-yl-2-d)phenyl)ethynyl)-3-hydroxy-1-methylpyrrolidin-2-one] | 8.51 |  | 6.64
